row,Structure (SMILES),melting point [°C]
1,"COC(CNC(=O)c1cc(I)cc(I)c1I)OC [Compound I-1, N-(2,2-dimethoxyethyl)-2,3,5-triiodobenzamide]",180 to 182
2,O=CCNC(=O)c1cc(I)cc(I)c1I [Compound I-8],90 to 92
3,COC(CNC(=O)COc1c(I)cc(I)cc1I)OC [Compound I-10],170 to 171
4,COC(CNC(=O)Cc1cc(I)cc(I)c1I)OC [Compound I-11],172 to 173
5,COC(CNC(=O)c1ccc(I)cc1)OC [Compound I-6],156 to 158
6,COC(CNC(=O)c1ccc(I)cn1)OC [Compound I-9],178 to 180
7,COC(CNC(=O)c1cc(I)ccc1I)OC [Compound I-7],165 to 166

# From patent US20240327335A1, “AMIDE COMPOUND HAVING IODOARYL OR IODOHETEROARYL, PREPARATION METHOD THEREFOR AND USE THEREOF” (CARDIOLINK SCIENCE (SHENZHEN) MEDICAL TECHNOLOGY …, priority 2022, published 2024)
